Experiment [1] deals with enkephalin/endorphin transport system in SK—N—SH cells. As to the kind of experiment: [^3H]deltorphin II uptake in SK—N—SH cells, effect of peptides and amino acids. The class given is cell-based, human. The note with it: for Deltorphin II uptake / effect on [^3H]deltorphin II uptake (in words): NaCl, 30 minutes; for Deltorphin II uptake: compound 1 mM; for effect on [^3H]deltorphin II uptake (in words): test substance 1 mM; for Ki: read-out: Ki for inhibition of deltorphin II uptake, dose-response studies. As for the experimental part:
(§1) Uptake measurements in control ARPE-19 cells and Tat-ARPE-19 cells. Control ARPE-19 cells and Tat-ARPE-19 cells were maintained in 75-cm^2 culture flasks in Dulbecco's modified Eagle's medium/F12 medium (1:1, volume/volume (v/v)) in the presence of fetal bovine serum (10%) and G418 (100 μg/ml). For uptake measurements, cells were released by trypsin treatment and seeded in 24-well culture plates at an initial density of 0.1×10^6 cells/well. The culture medium was replaced with fresh medium on the second day following the initial seeding and uptake measurements were made on the third day. […] After incubation at 37° C. for a desired time, uptake was terminated by the removal of the medium and washing of the cells with ice-cold uptake buffer. The cells were then dissolved in 1% SDS in 0.2 M NaOH and used for measurement of radioactivity. The uptake buffer in most experiments was 25 mM Hepes/Tris (pH 7.5), containing 140 mM NaCl, 5.4 mM KCl, 1.8 mM CaCl2, 0.8 mM MgSO4 and 5 mM glucose.
Since enkephalins and endorphins are relevant to pain perception and to further provide evidence in support of a role for the transport system in opioidergic neurotransmission, the human neuronal cell line SK—N—SH was tested for expression of the transport system. […] Unless otherwise specified, procedures are as detailed in Example 1.
The concentration of enkephalins and dynorphins was 1 mM.
Finally, the relative affinity of various enkephalins and dynorphins for the transport system in SK—N—SH cells was determined.
To the further characterize the opioid transport of the present invention, various specific peptides that act as positive modulators of the enkephalin/endorphin transport system in the human neuronal cell line SK—N—SH were identified. Unless otherwise specified, procedures are as detailed in Example 1. […] Uptake was measured in the presence of NaCl for 30 minutes. The concentration of the dipeptides was 1 mM.
Uptake was measured in the presence of NaCl for 30 minutes. The concentration of the tripeptides was 1 mM.
Unless otherwise specified, procedures are as described in more detail in Example 1.
The dose-response relationship for the inhibition of the enkephalin/endorphin transport system by L-Lysine and its methyl and ethyl esters is shown in FIG. 15.

For experiment [2], the system named is deltorphin II transport system in Tat-ARPE-19 cells. As to the kind of experiment: Inhibition of [^3H]deltorphin II uptake in Tat-ARPE-19 cells. The class given is cell-based, human. The following applies: [^3H]deltorphin II 50 nM; for competition with deltorphin for the uptake process (in words): Tat-ARPE-19 / RPE cells, compound 1 mM; for [^3H] Deltorphin II uptake / [^3H] Deltorphin II uptake (%) of control: Tat-ARPE-19 cells, 30 minutes, NaCl, inhibitor 1 mM; for [^3H] Deltorphin II uptake (%) of control: control = 100.
Excerpt: Stable transfection of ARPE-19 cells with pcDNA-Tat cDNA. The pGEM2-Tat cDNA construct contained as the insert a 295 basepair (bp) fragment encoding the first exon of HIV-1 Tat gene joined to a 145 bp pET3A transcription terminator. The entire insert (440 bp) was removed from the construct by digestion with PstI and EcoRI and ligated into the multiple cloning region of pcDNA3.1 (−) vector at PstI/EcoRI site so that the insert is downstream of the cytomegalovirus (CMV) promoter. The resultant construct was sequenced to confirm the orientation of the insert. This construct was electroporated into ARPE-19 cells and the stably transfected cell clones were isolated in the presence of Geneticin (G418). To serve as a control, empty pcDNA3.1 vector was electroporated into ARPE-19 cells in an identical manner and the clones harboring the vector were selected by G418 resistance.
as §1
When the influence of Na^+ on the uptake process was investigated, the concentration of NaCl in the uptake buffer was adjusted, as desired, by isoosmotically replacing NaCl with N-methyl-D-glucamine chloride. To assess the influence of Cl^− on the uptake process, the composition of the uptake medium was modified by replacing KCl and CaCl2 with equimolar concentrations of potassium gluconate and calcium gluconate and the concentration of NaCl was adjusted, as desired, by iso-osmotically replacing NaCl with sodium gluconate. Saturation kinetics were analysed by fitting the data to the Michaelis-Menten equation. The Michaelis-Menten constant, Kt, was calculated by non-linear regression analysis and then confirmed by linear regression. Na^+- and Cl^−-activation kinetics were analyzed by fitting the data to the Hill equation and the Hill coefficients for Na^+ and Cl^− (h; the number of Na^+ and Cl^− ions involved in the activation process) and the K0.5 values (the concentration of Na^+ and Cl^−-needed for half-maximal activation) were determined from the analysis. Again, these constants were first calculated by non-linear regression methods and subsequently confirmed by linear regression methods. Experiments were repeated three times in duplicate and the results are given as means±S.E.M.
Substrate specificity of the deltorphin transport system. […] These peptides consisted of 4-13 amino acids.
Relative affinities of endogenous opioid peptides for the transport system.

“Also recorded” adds a separate entry of the source. Ends that are not written are not given here.

As to `C[N+](C)(C)C[C@H](O)CC(=O)[O-]` [L-Carnitine], in experiment [1] ([^3H]deltorphin II 25 nM), the “Deltorphin II uptake” value worked out at 2.34 ± 0.12 pmol/30 min/mg protein. Turning to `N=C(N)NCCC[C@H](N)C(=O)O` [L-Arg, L-arginine], in experiment [1] ([^3H]deltorphin II 25 nM), the “Deltorphin II uptake” value worked out at 1.46 ± 0.12 pmol/30 min/mg protein and the “effect on [^3H]deltorphin II uptake (in words)” value (“effect” for short) is recorded as “significant inhibition”.

For `CC(C)C[C@H](N)C(=O)O` [L-leucine], the “effect” value in experiment [1] ([^3H]deltorphin II 25 nM) is listed as “significant inhibition”. Take `NCC(=O)O` [Glycine]: in experiment [2], the “competition with deltorphin for the uptake process (in words)” value (“competition with deltorphin” for short) is recorded as “did not compete”, the “[^3H] Deltorphin II uptake” value is recorded as 7.23 ± 0.14 pmol/mg protein/30 min and the “[^3H] Deltorphin II uptake (%) of control” value was 93%. On to `N[C@H](Cc1ccc(O)cc1)C(=O)O` [D-Tyrosine], for which, in experiment [2], the “[^3H] Deltorphin II uptake” value is 4.05 ± 0.09 pmol/mg protein/30 min and the “[^3H] Deltorphin II uptake (%) of control” value came to 52%. The “effect” value in experiment [1] ([^3H]deltorphin II 25 nM) is on record as “significant inhibition”. Consider YGGFMK [α-Neo-endorphin (1-6)], for which, in experiment [2], the “competition with deltorphin” value is “marked inhibition”, the “[^3H] Deltorphin II uptake” value turned out to be 0.19 ± 0.01 pmol/mg protein/30 min and the “[^3H] Deltorphin II uptake (%) of control” value came to 3%. `NCCCC(=O)O` [GABA]: the “Deltorphin II uptake” value in experiment [1] ([^3H]deltorphin II 25 nM) was 2.62 ± 0.13 pmol/30 min/mg protein. As usually defined, the Ki is a dissociation constant, usually derived from enzyme kinetics or from competition with a known ligand. As for `CCOC(=O)[C@@H](N)CCCCN` [Lys-ethyl ester, L-lysylethyl ester], the “Deltorphin II uptake” value in experiment [1] ([^3H]deltorphin II 25 nM) amounted to 0.55 ± 0.05 pmol/30 min/mg protein. The Ki in experiment [1] came to 154 ± 34 µM. As for YPFPGPI [β-Casomorphin], in experiment [2], the “[^3H] Deltorphin II uptake” value was 2.03 ± 0.05 pmol/mg protein/30 min and the “[^3H] Deltorphin II uptake (%) of control” value stood at 26%. For `NCCCCCC(=O)O` [6-amino hexanoic acid], the “Deltorphin II uptake” value in experiment [1] ([^3H]deltorphin II 25 nM) is on record as 2.92 ± 0.18 pmol/30 min/mg protein. On to `NCCC(=O)N[C@@H](Cc1cnc[nH]1)C(=O)O` [Carnosine, β-Ala-His], for which, in experiment [2], the “competition with deltorphin” value is listed as “did not compete”, the “[^3H] Deltorphin II uptake” value amounted to 6.21 ± 0.08 pmol/mg protein/30 min and the “[^3H] Deltorphin II uptake (%) of control” value came to 80%. The corresponding values for “Tyr-Gly-Gly-Phe (YGGF; printed: Tyr-Gly-Gly-Phe) [β-Lipotropin]” are “no or little inhibition”, 6.26 ± 0.31 pmol/mg protein/30 min and 81%.

Regarding “Tyr-Gly-Gly-Phe-Met-NH2 (YGGFM; printed: Tyr-Gly-Gly-Phe-Met-) [Met-enkephalinamide]”, in experiment [2], the “competition with deltorphin” value is recorded as “marked inhibition”, the “[^3H] Deltorphin II uptake” value is reported as 0.69 ± 0.01 pmol/mg protein/30 min and the “[^3H] Deltorphin II uptake (%) of control” value stood at 9%. As for `NCCCC[C@H](N)C(N)=O` [L-Lys-amide], the “Deltorphin II uptake” value in experiment [1] ([^3H]deltorphin II 25 nM) is on record as 2.92 ± 0.09 pmol/30 min/mg protein.

Regarding Gly-Gly-Phe, the “effect” value in experiment [1] ([^3H]deltorphin II 25 nM) is recorded as “ability to stimulate the uptake”. As to `CC(=O)N[C@@H](CCCCN)C(=O)O` [α-N-acetyl-L-Lys], the “Deltorphin II uptake” value in experiment [1] ([^3H]deltorphin II 25 nM) amounted to 2.82 ± 0.08 pmol/30 min/mg protein. Take `COC(=O)[C@@H](N)CCCCN` [L-Lys-methyl ester, L-lysylmethyl ester]: the “Deltorphin II uptake” value in experiment [1] ([^3H]deltorphin II 25 nM) is 0.28 ± 0.01 pmol/30 min/mg protein. In experiment [1], the inhibition constant (Ki) was 169 ± 9 µM. In the case of `C[N+](C)(C)CCCC[C@H](N)C(=O)O` [Trimethyl-L-Lys], the “Deltorphin II uptake” value in experiment [1] ([^3H]deltorphin II 25 nM) is 2.39 ± 0.11 pmol/30 min/mg protein. For `NCCCCCN` [1,5-diaminopentane], the “Deltorphin II uptake” value in experiment [1] ([^3H]deltorphin II 25 nM) turned out to be 3.24 ± 0.16 pmol/30 min/mg protein. Still for that read-out and setting: then `CC(=O)NCCCC[C@H](N)C(=O)O` [ε-N-acetyl-L-Lys], with 2.38 ± 0.13 pmol/30 min/mg protein. Regarding `C[C@@H](N)C(=O)O` [D-alanine], the “effect” value in experiment [1] ([^3H]deltorphin II 25 nM) is recorded as “significant inhibition”. Turning to “Tyr-Pro-Leu-Gly-NH2 (YPLG-NH2) [Tyr-MIF-1]”, in experiment [2], the “competition with deltorphin” value was “no or little inhibition; also recorded: not recognized”, the “[^3H] Deltorphin II uptake” value was 9.20 ± 0.15 pmol/mg protein/30 min and the “[^3H] Deltorphin II uptake (%) of control” value is reported as 119%. As for Try-Gly-Gly, the “effect” value in experiment [1] ([^3H]deltorphin II 25 nM) is “ability to stimulate the uptake”. With `NCCCC[C@@H](N)C(=O)O` [D-Lys, D-lysine], in experiment [1] ([^3H]deltorphin II 25 nM), the “Deltorphin II uptake” value came out at 2.60 ± 0.31 pmol/30 min/mg protein and the “effect” value was “no effect”.

For `O=C(O)[C@@H]1CCCN1` [L-Proline], in experiment [2], the “competition with deltorphin” value is listed as “did not compete”, the “[^3H] Deltorphin II uptake” value is recorded as 7.31 ± 0.20 pmol/mg protein/30 min and the “[^3H] Deltorphin II uptake (%) of control” value is listed as 94%. As to `CC(=N)NCCCC[C@H](N)C(=O)O` [L-NIL], in experiment [1] ([^3H]deltorphin II 25 nM), the “Deltorphin II uptake” value came to 2.40 ± 0.15 pmol/30 min/mg protein. As to `N[C@@H](Cc1ccc(O)cc1)C(=O)O` [L-Tyrosine], in experiment [2], the “competition with deltorphin” value was “did not compete”, the “[^3H] Deltorphin II uptake” value stood at 7.52 ± 0.15 pmol/mg protein/30 min and the “[^3H] Deltorphin II uptake (%) of control” value is on record as 97%. For Tyr-Pro, in that order: “did not compete”, 5.72 ± 0.09 pmol/mg protein/30 min and 74%. For the compound `NCC(=O)CCC(=O)O` [δ-amino-levulinic acid], in experiment [1] ([^3H]deltorphin II 25 nM), the “Deltorphin II uptake” value amounted to 2.68 ± 0.18 pmol/30 min/mg protein. As for Glu-Gly-Phe, the “effect” value in experiment [1] ([^3H]deltorphin II 25 nM) is reported as “ability to stimulate the uptake”. On the same count and under the same terms, to `CC(C)[C@H](N)C(=O)O` [L-valine] belongs “significant inhibition”.

With Gly-Gly-Ile, the “influence on kinetic parameters of deltorphin II uptake” value in experiment [1] (1 mM Gly-Gly-Ile) is recorded as “increasing the maximal velocity of the system without affecting the affinity for its substrate”. Further, the “effect” value in experiment [1] ([^3H]deltorphin II 25 nM) is on record as “ability to stimulate the uptake; also recorded: stimulated”. Besides, the “stimulation of deltorphin II uptake” value in experiment [1] ([^3H]deltorphin II 25 nM, peptide 1 mM) is given as 6- to 8 fold. With `NC(=O)NCCC[C@H](N)C(=O)O` [L-Citrulline], the “Deltorphin II uptake” value in experiment [1] ([^3H]deltorphin II 25 nM) was determined as 2.18 ± 0.06 pmol/30 min/mg protein. Same read-out and setting: to `NCCC[C@H](N)C(=O)O` [L-Ornitine] belongs 1.87 ± 0.08 pmol/30 min/mg protein. Regarding “Gly-Gly-Phe-Met [[des-Tyr^1] Met-enkephalin]”, in experiment [2], the “competition with deltorphin” value is “marked inhibition”, the “[^3H] Deltorphin II uptake” value worked out at 0.74 ± 0.03 pmol/mg protein/30 min and the “[^3H] Deltorphin II uptake (%) of control” value came out at 10%. In the case of `NCCCCCCN` [Hexamethylenediamine], the “Deltorphin II uptake” value in experiment [1] ([^3H]deltorphin II 25 nM) is reported as 2.83 ± 0.13 pmol/30 min/mg protein.

With `COC(=O)[C@H](CCCCN)NC(C)=O` [α-N-acetyl-L-Lys-methyl ester], the “Deltorphin II uptake” value in experiment [1] ([^3H]deltorphin II 25 nM) was 2.37 ± 0.20 pmol/30 min/mg protein.

For the origin of these results see patent publication US20060019241A1, “Na+ and CI-coupled transport system for endogenous opioid peptides” (priority 2004, published 2006).
